Source: paper PMC4428687 (FEMS yeast research, 2013)

Legend:
CaPma1p [1] = molecular target: CaPma1p (Candida albicans, UniProt A0A1D8PJ01); experiment: ATPase activity; type: biochemical
CaPma1p [2] = molecular target: CaPma1p (Candida albicans, UniProt A0A1D8PJ01, A570P/A595V/D557N/D559E/I574L/N594R/S564G/S601N/V186I/V531I); experiment: biochemical
CaPma1p [3] = molecular target: CaPma1p (Candida albicans, UniProt A0A1D8PJ01, A570P/A595V/I574L/N594R/S601N); experiment: biochemical
[4] = molecular target: CaPma1p-ScPma2p chimera expressed in Saccharomyces cerevisiae (C. albicans SC5314 (with residues of S. cerevisiae Pma2p)) (UniProt P28877); experiment: SEC

Row | Molecule | IC50 (CaPma1p [1]) [µM] | IC50 (CaPma1p [2]) [µM] | IC50 (CaPma1p [3]) [µM] | stoichiometry N [4]
1 | [O]=[V]([OH])([OH])[OH] [vanadate] | 2 to 9 | 2 to 9 | 2 to 9 | –
2 | CaPma1p-ScPma2p chimera expressed in Saccharomyces cerevisiae (from UniProt P28877 1-895) (enzyme) | – | – | – | > 4
